Laboratory results as given in ChEMBL document CHEMBL4507289, “Data for DCP probe GSM1” (2021).

Assays:
[1] = test system: Receptor-type tyrosine-protein kinase FLT3 (Homo sapiens), P36888 [N841I]; settings: Compound concentration 1000.0 nM
[2] = biological target: Maternal embryonic leucine zipper kinase (Homo sapiens) (UniProt Q14680); settings: Compound concentration 1000.0 nM
[3] = biological target: Non-receptor tyrosine-protein kinase TYK2 (Homo sapiens) (UniProt P29597); settings: Compound concentration 1000.0 nM
[4] = biological target: Dual specificity mitogen-activated protein kinase kinase 1 (Homo sapiens) (UniProt Q02750); settings: Compound concentration 1000.0 nM
[5] = test system: Phosphatidylinositol 4,5-bisphosphate 3-kinase catalytic subunit alpha isoform (Homo sapiens), P42336 [C420R]; settings: Compound concentration 1000.0 nM
[6] = biological target: Rhodopsin kinase GRK7 (Homo sapiens) (UniProt Q8WTQ7); settings: Compound concentration 1000.0 nM
[7] = biological target: GABA-A receptor; anion channel (Rattus norvegicus) (UniProt O09028+P15431+P18506+P18508+P19969+P20236+P23574+P23576+P28471+P28473+P30191+P62813+P63079+P63138+Q91ZM7+Q9ES14); settings: Compound concentration 10.0 uM
[8] = biological target: Histamine H4 receptor (Homo sapiens) (UniProt Q9H3N8); settings: Compound concentration 10.0 uM
[9] = biological target: Myosin-IIIb (Homo sapiens) (UniProt Q8WXR4); settings: Compound concentration 1000.0 nM
Chain of Myosin-IIIb (Homo sapiens) (Q8WXR4 whole entry): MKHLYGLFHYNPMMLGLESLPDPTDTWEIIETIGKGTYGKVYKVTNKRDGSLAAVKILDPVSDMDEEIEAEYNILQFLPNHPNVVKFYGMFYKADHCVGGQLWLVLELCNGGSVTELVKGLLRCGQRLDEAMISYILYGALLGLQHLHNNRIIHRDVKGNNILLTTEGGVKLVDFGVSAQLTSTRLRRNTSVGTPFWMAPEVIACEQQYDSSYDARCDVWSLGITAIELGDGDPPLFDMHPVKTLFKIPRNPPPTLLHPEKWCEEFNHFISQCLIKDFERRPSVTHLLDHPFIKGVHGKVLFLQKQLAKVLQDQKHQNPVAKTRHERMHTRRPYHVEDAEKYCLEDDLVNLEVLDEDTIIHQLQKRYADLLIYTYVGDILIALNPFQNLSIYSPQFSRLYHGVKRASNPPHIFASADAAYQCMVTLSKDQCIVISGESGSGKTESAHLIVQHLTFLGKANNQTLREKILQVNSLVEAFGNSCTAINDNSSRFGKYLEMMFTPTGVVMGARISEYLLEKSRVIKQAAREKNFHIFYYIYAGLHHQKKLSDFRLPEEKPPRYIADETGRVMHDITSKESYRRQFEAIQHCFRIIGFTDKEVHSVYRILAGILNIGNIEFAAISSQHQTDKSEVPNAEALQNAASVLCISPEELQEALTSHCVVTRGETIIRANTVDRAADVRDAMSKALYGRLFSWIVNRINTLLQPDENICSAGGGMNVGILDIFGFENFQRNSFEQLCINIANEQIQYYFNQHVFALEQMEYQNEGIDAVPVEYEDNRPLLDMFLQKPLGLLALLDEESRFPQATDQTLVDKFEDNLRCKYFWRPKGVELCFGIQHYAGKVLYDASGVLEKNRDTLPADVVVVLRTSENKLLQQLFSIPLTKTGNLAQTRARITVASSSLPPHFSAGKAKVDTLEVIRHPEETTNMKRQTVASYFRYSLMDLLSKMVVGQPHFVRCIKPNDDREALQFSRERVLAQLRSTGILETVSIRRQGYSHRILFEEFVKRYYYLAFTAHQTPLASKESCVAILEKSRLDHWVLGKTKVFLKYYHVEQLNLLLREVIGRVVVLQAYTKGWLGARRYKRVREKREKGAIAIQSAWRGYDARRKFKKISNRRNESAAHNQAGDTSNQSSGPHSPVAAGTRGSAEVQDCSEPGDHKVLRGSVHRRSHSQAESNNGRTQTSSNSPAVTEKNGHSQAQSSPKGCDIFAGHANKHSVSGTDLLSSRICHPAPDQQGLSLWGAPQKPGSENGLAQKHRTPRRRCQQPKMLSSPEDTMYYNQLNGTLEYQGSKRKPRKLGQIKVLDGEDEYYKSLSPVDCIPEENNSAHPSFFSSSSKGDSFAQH

[10] = biological target: Alpha-2A adrenergic receptor (Homo sapiens) (UniProt P08913); settings: Compound concentration 10.0 uM
[11] = biological target: BDNF/NT-3 growth factors receptor (Homo sapiens) (UniProt Q16620); settings: Compound concentration 1000.0 nM
[12] = biological target: Misshapen-like kinase 1 (Homo sapiens) (UniProt Q8N4C8); settings: Compound concentration 1000.0 nM
[13] = biological target: Cyclin-dependent kinase 11B (Homo sapiens) (UniProt P21127); settings: Compound concentration 1000.0 nM
[14] = test system: Hepatocyte growth factor receptor (Homo sapiens), P08581 [Y1235D]; settings: Compound concentration 1000.0 nM
[15] = biological target: Serine/threonine-protein kinase 36 (Homo sapiens) (UniProt Q9NRP7); settings: Compound concentration 1000.0 nM
[16] = biological target: Serine/threonine-protein kinase BRSK1 (Homo sapiens) (UniProt Q8TDC3); settings: Compound concentration 1000.0 nM
[17] = biological target: Mitogen-activated protein kinase 13 (Homo sapiens) (UniProt O15264); settings: Compound concentration 1000.0 nM
[18] = biological target: BMP-2-inducible protein kinase (Homo sapiens) (UniProt Q9NSY1); settings: Compound concentration 1000.0 nM
[19] = biological target: Serine/threonine-protein kinase ICK (Homo sapiens) (UniProt Q9UPZ9); settings: Compound concentration 1000.0 nM
[20] = biological target: Serine/threonine-protein kinase 38-like (Homo sapiens) (UniProt Q9Y2H1); settings: Compound concentration 1000.0 nM
[21] = biological target: Membrane-associated tyrosine- and threonine-specific cdc2-inhibitory kinase (Homo sapiens) (UniProt Q99640); settings: Compound concentration 1000.0 nM
[22] = biological target: Histamine H1 receptor (Homo sapiens) (UniProt P35367); settings: Compound concentration 10.0 uM
[23] = biological target: Serine/threonine-protein kinase PRP4 homolog (Homo sapiens) (UniProt Q13523); settings: Compound concentration 1000.0 nM
[24] = biological target: Serine/threonine-protein kinase LATS1 (Homo sapiens) (UniProt O95835); settings: Compound concentration 1000.0 nM
[25] = biological target: D(3) dopamine receptor (Homo sapiens) (UniProt P35462); settings: Compound concentration 10.0 uM
[26] = biological target: Myosin-IIIa (Homo sapiens) (UniProt Q8NEV4); settings: Compound concentration 1000.0 nM
[27] = biological target: Activin receptor type-1 (Homo sapiens) (UniProt Q04771); settings: Compound concentration 1000.0 nM
Chain of Activin receptor type-1 (Homo sapiens) (Q04771 whole entry): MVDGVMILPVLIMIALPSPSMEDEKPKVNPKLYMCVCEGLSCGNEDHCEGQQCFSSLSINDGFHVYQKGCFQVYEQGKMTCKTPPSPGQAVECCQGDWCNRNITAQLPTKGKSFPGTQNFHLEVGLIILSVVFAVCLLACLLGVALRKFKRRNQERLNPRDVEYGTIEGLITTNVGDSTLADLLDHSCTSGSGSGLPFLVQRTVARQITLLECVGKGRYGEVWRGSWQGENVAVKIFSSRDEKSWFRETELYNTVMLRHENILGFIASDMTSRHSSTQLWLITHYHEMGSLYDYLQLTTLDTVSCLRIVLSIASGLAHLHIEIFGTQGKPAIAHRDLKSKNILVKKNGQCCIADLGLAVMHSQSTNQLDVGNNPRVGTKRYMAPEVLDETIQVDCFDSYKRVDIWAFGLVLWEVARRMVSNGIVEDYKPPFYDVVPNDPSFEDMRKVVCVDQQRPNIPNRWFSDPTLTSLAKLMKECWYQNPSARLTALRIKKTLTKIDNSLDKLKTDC

[28] = biological target: Ribosomal protein S6 kinase alpha-6 (Homo sapiens) (UniProt Q9UK32); settings: Compound concentration 1000.0 nM
[29] = biological target: Mitogen-activated protein kinase 1 (Homo sapiens) (UniProt P28482); settings: Compound concentration 1000.0 nM
Chain of Mitogen-activated protein kinase 1 (Homo sapiens) (P28482 whole entry): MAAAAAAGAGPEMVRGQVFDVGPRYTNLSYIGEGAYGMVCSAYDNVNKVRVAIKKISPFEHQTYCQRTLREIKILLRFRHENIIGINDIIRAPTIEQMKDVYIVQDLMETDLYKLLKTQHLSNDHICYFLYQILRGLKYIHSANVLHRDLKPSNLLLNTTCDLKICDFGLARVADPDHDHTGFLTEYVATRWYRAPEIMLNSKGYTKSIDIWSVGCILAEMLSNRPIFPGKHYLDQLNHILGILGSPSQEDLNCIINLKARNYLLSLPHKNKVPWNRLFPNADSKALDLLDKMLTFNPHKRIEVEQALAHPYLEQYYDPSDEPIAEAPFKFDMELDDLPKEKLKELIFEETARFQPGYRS

[30] = biological target: 5-hydroxytryptamine receptor 2B (Homo sapiens) (UniProt P41595); settings: Compound concentration 10.0 uM
[31] = biological target: SNF-related serine/threonine-protein kinase (Homo sapiens) (UniProt Q9NRH2); settings: Compound concentration 1000.0 nM
[32] = biological target: TRAF2 and NCK-interacting protein kinase (Homo sapiens) (UniProt Q9UKE5); settings: Compound concentration 1000.0 nM
Chain of TRAF2 and NCK-interacting protein kinase (Homo sapiens) (Q9UKE5 whole entry, looked up): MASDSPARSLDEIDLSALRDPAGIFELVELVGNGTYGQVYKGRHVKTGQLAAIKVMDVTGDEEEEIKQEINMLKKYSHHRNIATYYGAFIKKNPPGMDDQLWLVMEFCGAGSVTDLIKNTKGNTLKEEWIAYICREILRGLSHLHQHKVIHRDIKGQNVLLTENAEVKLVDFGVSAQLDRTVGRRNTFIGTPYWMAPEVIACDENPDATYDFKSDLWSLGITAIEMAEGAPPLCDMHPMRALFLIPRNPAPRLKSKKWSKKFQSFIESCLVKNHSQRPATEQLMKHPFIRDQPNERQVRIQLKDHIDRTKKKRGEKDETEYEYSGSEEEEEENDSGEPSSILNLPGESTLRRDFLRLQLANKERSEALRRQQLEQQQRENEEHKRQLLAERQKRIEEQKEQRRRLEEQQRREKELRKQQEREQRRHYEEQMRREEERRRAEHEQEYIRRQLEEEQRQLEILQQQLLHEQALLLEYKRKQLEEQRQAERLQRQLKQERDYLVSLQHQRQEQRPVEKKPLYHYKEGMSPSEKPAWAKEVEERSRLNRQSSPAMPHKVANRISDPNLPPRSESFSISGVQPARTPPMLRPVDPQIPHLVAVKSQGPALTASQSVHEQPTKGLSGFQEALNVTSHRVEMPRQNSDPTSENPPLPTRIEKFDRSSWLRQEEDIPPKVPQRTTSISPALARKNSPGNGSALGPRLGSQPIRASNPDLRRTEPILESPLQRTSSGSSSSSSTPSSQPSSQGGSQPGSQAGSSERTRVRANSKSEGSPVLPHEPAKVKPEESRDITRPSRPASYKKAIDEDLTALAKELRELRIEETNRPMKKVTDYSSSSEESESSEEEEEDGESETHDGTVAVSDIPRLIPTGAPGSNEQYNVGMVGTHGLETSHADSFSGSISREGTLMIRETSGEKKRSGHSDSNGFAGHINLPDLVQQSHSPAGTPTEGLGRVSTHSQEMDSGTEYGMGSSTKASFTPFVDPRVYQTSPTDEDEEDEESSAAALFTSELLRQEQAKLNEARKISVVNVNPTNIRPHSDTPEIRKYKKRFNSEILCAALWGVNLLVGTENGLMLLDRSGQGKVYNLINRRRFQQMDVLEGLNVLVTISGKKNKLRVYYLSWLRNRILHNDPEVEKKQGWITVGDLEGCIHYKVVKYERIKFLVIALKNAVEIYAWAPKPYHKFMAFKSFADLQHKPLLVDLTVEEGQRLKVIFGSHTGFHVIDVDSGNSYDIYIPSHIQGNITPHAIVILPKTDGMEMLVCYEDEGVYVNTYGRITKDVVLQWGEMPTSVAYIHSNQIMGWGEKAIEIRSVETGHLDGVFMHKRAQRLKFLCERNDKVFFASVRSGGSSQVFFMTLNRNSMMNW

[33] = biological target: Tyrosine-protein kinase ZAP-70 (Homo sapiens) (UniProt P43403); settings: Compound concentration 1000.0 nM
[34] = biological target: Dual specificity tyrosine-phosphorylation-regulated kinase 1A (Homo sapiens) (UniProt Q13627); settings: Compound concentration 1000.0 nM
[35] = biological target: Calcium/calmodulin-dependent protein kinase type 1 (Homo sapiens) (UniProt Q14012); settings: Compound concentration 1000.0 nM
[36] = biological target: High affinity nerve growth factor receptor (Homo sapiens) (UniProt P04629); settings: Compound concentration 1000.0 nM
[37] = biological target: Serine/threonine-protein kinase SIK3 (Homo sapiens) (UniProt Q9Y2K2); settings: Compound concentration 1000.0 nM
[38] = biological target: Cytoplasmic tyrosine-protein kinase BMX (Homo sapiens) (UniProt P51813); settings: Compound concentration 1000.0 nM
[39] = biological target: Cyclin-dependent kinase 7 (Homo sapiens) (UniProt P50613); settings: Compound concentration 1000.0 nM
[40] = biological target: Ephrin type-A receptor 3 (Homo sapiens) (UniProt P29320); settings: Compound concentration 1000.0 nM
Chain of Ephrin type-A receptor 3 (Homo sapiens) (P29320 whole entry): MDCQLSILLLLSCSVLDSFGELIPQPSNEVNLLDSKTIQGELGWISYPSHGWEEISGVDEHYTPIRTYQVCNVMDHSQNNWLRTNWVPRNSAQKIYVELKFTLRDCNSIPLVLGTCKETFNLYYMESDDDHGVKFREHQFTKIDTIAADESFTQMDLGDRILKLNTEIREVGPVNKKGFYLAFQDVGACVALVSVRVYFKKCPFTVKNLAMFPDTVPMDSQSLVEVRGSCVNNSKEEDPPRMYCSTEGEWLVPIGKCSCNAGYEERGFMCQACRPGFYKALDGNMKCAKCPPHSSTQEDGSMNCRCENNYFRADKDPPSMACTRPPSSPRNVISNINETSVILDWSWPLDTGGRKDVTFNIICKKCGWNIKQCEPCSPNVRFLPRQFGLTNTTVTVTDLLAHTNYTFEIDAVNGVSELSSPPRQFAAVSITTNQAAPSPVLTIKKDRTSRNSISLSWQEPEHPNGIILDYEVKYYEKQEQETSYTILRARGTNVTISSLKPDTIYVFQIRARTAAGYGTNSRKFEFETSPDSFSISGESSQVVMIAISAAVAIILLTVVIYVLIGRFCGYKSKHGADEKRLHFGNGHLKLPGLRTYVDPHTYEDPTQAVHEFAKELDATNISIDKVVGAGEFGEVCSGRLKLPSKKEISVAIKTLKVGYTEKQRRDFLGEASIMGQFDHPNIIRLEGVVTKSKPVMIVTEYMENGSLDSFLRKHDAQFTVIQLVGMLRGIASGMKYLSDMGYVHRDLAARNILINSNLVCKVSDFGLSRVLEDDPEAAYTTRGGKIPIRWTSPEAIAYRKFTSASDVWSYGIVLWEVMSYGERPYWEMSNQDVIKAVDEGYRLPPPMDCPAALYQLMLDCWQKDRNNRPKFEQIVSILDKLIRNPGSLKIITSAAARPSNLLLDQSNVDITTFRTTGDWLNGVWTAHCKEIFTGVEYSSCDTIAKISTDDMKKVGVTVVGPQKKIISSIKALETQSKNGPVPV

[41] = biological target: Calcium/calmodulin-dependent protein kinase kinase 2 (Homo sapiens) (UniProt Q96RR4); settings: Compound concentration 1000.0 nM
[42] = biological target: Vascular endothelial growth factor receptor 2 (Homo sapiens) (UniProt P35968); settings: Compound concentration 1000.0 nM
[43] = biological target: Homeodomain-interacting protein kinase 2 (Homo sapiens) (UniProt Q9H2X6); settings: Compound concentration 1000.0 nM
[44] = biological target: Serine/threonine-protein kinase 4 (Homo sapiens) (UniProt Q13043); settings: Compound concentration 1000.0 nM
Chain of Serine/threonine-protein kinase 4 (Homo sapiens) (Q13043 whole entry): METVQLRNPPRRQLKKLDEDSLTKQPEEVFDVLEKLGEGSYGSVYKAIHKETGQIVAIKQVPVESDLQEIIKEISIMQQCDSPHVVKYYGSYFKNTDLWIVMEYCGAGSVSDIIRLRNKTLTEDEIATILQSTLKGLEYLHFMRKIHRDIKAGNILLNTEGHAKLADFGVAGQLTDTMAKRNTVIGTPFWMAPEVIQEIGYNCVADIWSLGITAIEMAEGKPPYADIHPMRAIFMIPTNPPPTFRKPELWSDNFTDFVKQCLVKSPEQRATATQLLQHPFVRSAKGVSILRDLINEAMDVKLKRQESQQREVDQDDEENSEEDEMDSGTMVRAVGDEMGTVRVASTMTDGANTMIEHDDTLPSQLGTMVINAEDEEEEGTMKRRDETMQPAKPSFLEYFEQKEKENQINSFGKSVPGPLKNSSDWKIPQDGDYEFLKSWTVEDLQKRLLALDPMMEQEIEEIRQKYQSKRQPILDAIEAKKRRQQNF

COc1cc(-c2cn([C@H]3CCc4ccccc4N(CC(F)(F)F)C3=O)nn2)ccc1-n1ccc(C)n1
inactive: residual activity [1] 100% | residual activity [2] 96% | residual activity [3] 100% | residual activity [4] 100% | residual activity [5] 68% | residual activity [6] 87% | inhibition [7] -6.73% | inhibition [8] 9.63% | residual activity [9] 100% | inhibition [10] 22.2% | residual activity [11] 93% | residual activity [12] 100% | residual activity [13] 100% | residual activity [14] 93% | residual activity [15] 79% | residual activity [16] 81% | residual activity [17] 88% | residual activity [18] 100% | residual activity [19] 63% | residual activity [20] 75% | residual activity [21] 100% | inhibition [22] 9.72% | residual activity [23] 93% | residual activity [24] 71% | inhibition [25] 22% | residual activity [26] 100% | residual activity [27] 100% | residual activity [28] 91% | residual activity [29] 100% | inhibition [30] 6.39% | residual activity [31] 99% | residual activity [32] 81% | residual activity [33] 82% | residual activity [34] 83% | residual activity [35] 100% | residual activity [36] 63% | residual activity [37] 92% | residual activity [38] 100% | residual activity [39] 87% | residual activity [40] 95% | residual activity [41] 100% | residual activity [42] 79% | residual activity [43] 82% | residual activity [44] 100%

COc1cc(-c2cn([C@H]3CCc4c(F)cccc4N(CC(F)(F)F)C3=O)nn2)ccc1-n1cnc(C)c1
inactive: residual activity [1] 99% | residual activity [2] 100% | residual activity [3] 100% | residual activity [4] 100% | residual activity [5] 75% | residual activity [6] 100% | inhibition [7] 22.6% | inhibition [8] -2.49% | residual activity [9] 100% | inhibition [10] 35% | residual activity [11] 92% | residual activity [12] 84% | residual activity [13] 95% | residual activity [14] 100% | residual activity [15] 100% | residual activity [16] 92% | residual activity [17] 100% | residual activity [18] 100% | residual activity [19] 65% | residual activity [20] 78% | residual activity [21] 100% | inhibition [22] 7.55% | residual activity [23] 100% | residual activity [24] 93% | inhibition [25] 3.33% | residual activity [26] 100% | residual activity [27] 100% | residual activity [28] 100% | residual activity [29] 100% | inhibition [30] 5.58% | residual activity [31] 100% | residual activity [32] 94% | residual activity [33] 100% | residual activity [34] 84% | residual activity [35] 100% | residual activity [36] 81% | residual activity [37] 100% | residual activity [38] 100% | residual activity [39] 100% | residual activity [40] 97% | residual activity [41] 100% | residual activity [42] 100% | residual activity [43] 100% | residual activity [44] 100%
